Reference: US4988681A, “Phosphinic acid derivatives” (Banyu Pharmaceutical Co., Ltd., priority 1988, dated 1991)

Molecular target: T1, porcine kidney dehydropeptidase I (Sus scrofa, UniProt P22412)
T1 construct: Frozen porcine kidney cortex was homogenized; from tissue; host or cells: porcine kidney cortex
T1 sequence (P22412 17-409): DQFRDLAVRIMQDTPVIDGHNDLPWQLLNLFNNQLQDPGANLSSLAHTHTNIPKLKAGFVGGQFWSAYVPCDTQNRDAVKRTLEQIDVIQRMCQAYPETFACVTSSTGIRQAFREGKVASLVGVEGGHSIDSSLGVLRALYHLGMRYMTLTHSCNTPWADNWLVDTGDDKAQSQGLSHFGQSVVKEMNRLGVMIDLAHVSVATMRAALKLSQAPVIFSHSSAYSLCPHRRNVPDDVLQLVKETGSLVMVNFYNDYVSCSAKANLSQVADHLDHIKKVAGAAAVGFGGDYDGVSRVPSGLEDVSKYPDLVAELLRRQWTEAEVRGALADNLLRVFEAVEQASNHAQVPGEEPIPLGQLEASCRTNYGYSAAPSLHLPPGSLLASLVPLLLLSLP
Assay: Inhibitory activity on porcine kidney dehydropeptidase I (DHP-I)
Assay type: biochemical
Details: substrate glycyldehydrophenylalanine, pH 7.4, 37° C., 3 h pre-incubation; read-out: Concentration producing 50% inhibition (IC50)
Procedure: (1) Inhibitory activity on porcine kidney dehydropeptidase I
(i) Purification of porcine dehydropeptidase I
Frozen porcine kidney cortex was homogenized. Butanol (1/4 volume) pre-cooled in a dry ice-acetone bath was added to the homogenate, and the mixture was stirred at 4° C. for 43 hours. The mixture was then dialyzed for one day and centrifuged at 3,000 g for 30 minutes. To the resulting supernatant was added ammonium sulfate. A precipitate at the salt concentration range between 50 and 75% was collected to give a crude enzyme preparation which was re-dissolved in a 50 mM MOPS buffer containing 0.5 M NaCl. The solution was charged on a cilastatin affinity column. Elution with a 50 mM MOPS buffer containing 0.5 M NaCN gave a purified enzyme preparation.
(ii) Measurement of inhibitory activity
The resulting enzyme preparation (3 mU) and an inhibitor were pre-incubatedat 37° C. for 3 hours in 2.7 ml of a 50 mM MOPS buffer (pH 7.4), and then 2.475 ml of the mixture was transferred into a cuvette. As a substrate, 25 microliters of a 5 mM glycyldehydrophenylalanine solution in a 50 mM MOPS buffer (pH 7.4) was added to start an enzymic reaction. The reaction was carried out at 37° C. in a spectrophotometer fitted with a constant-emperature device, and a decrease of the absorbance at 275 nm during a period of 5 minutes was measured. […] An IC50 value was calculated from the percent inhibition data.
One unit (U) is defined as the amount of the enzyme which hydrolyzes 1 micromole of the substrate (glycyldehydrophenylalanine) per minute at a substrate concentration of 0.05 mM at 37° C. in a 50 mM MOPS buffer (pH 7.4).

CC(C)CP(=O)(O)C/C(=C\C1CCCCC1)C(=O)O [Compound No. 2, (Z)-3-cyclohexyl-2-(hydroxyisobutylphosphinoyl)methylpropenoic acid] was tested, and the IC50 was 13 nM.
